“Also recorded” adds a separate entry of the source. Non-standard residues stand in square brackets, D forms with d. pT = C[C@@H](OP(=O)(O)O)[C@H](N)C(=O)O
Assays:
14‐3‐3 [1] = conditions: FRET; cited from earlier work
14‐3‐3σ = experiment: HDX‐MS of 14‐3‐3σ with and without ERα or LRRK2 peptide; format: binding; conditions: for protection of 14‐3‐3σ from deuterium exchange upon peptide binding: 14‐3‐3σ 100 µM, ERα 100 µM or LRRK2 200 µM, diluted tenfold into 100 mM ammonium acetate 99.9% D2O pD 7.2, room temperature, 10 min, 5 h, 24 h, 10% DMSO, n = 3 (LRRK2 10 min: duplicate); for protection of 14‐3‐3σ from deuterium exchange at H8 upon peptide binding: H8, located distally from the binding groove
Description: (§1) Maximally deuterated samples were analyzed in triplicate.
(§2) Eluted peptides were directly infused into the mass spectrometer. Mobile phases were kept on ice.
(§3) (Thermo Fisher Scientific). […] Peptides with >20 residues were excluded from analysis.

14-3-3σ [2] = experiment: Native MS of 14‐3‐3σ with ERα; format: binding; conditions: 14‐3‐3 5 µM, 1:1 ratio, 100 mM ammonium acetate (pH 6.8), 0.5% DMSO, absence of FC-A; 3 replicates
Description: (§4) LC‐MS grade dimethyl sulfoxide (DMSO) was purchased from Fisher Scientific. Lypholized ERα581‐595 15mer peptide (Ac‐[…](pT)V‐COOH, Synpeptide Ltd) and lypholized LRRK2_928‐942 15mer peptide (Ac‐NLQRHSN(pS)LGPIFDH‐CONH2, Synpeptide Ltd) were diluted into 100 mM ammonium acetate to make peptide stocks of 1 mM and stored at ‐20 °C prior to use. Fusicoccin A (FC‐A) was provided as a gift from Yusuke Higuchi. It was obtained as a metabolite of wildtype Phomopsis amygdali and genetically modified Phomopsis amygdali Niigata‐2 as reported previously^[ [62] ^] FC‐A stocks were stored in 100% DMSO at […] at ‐80 °C. 14‐3‐3 was buffer exchanged into 100 mM ammonium acetate (pH 6.8) using a 10 kDa molecular weight cut‐off Amicon Ultra centrifugal filter (Merck Millipore) and stored at ‐80 °C prior to use. To form the 14‐3‐3/ERα complex, 14‐3‐3 (5 µM) was incubated with ERα (1:1 ratio) in the presence and absence of FC‐A (50 µM) (1:1:10 ratio) for 10 min on ice or at 10 min, 5 h or 24 h at room temperature to mimic HDX conditions (Figure S16, Supporting Information). To form the 14‐3‐3/LRRK2 complex, 14‐3‐3 (5 µM) was incubated with LRRK2 (1:2 ratio) in the presence and absence of FC‐A (50 µM) (1:2:10 ratio). 14‐3‐3 binding ratios were optimized to enable single and double‐bound complex formation. 14‐3‐3 protein complexes were directly infused into the mass spectrometer. […]

14‐3‐3/ERα = conditions: cited from earlier work
From the text: (§5) Overall, we have highlighted the usefulness of applying HDX‐MS to characterize molecular glues. […] This information was captured on minute‐hour HDX‐MS timescales; however, it is important to optimize HDX‐MS timescales when applying this method to study alternate protein systems. Indeed, shorter timescales might be preferential to capture the most valuable information.

14‐3‐3 [3] = conditions: binary complex, without FC‐A; read-out: Kd for the binary complex 14‐3‐3/ERα; cited from earlier work
From the text: as §5

14‐3‐3 [4] = conditions: cited from earlier work
14‐3‐3σ/ERα complex = experiment: HDX‐MS of 14‐3‐3σ/ERα complex with and without FC‐A; format: binding
Description: as §1, §2, §3

14-3-3σ/ERα = conditions: 14-3-3:ERα:FC-A 1:1:10, 14‐3‐3 5 µM, FC‐A 50 µM, 100 mM ammonium acetate (pH 6.8), 0.5% DMSO; 3 replicates
Description: as §4

14‐3‐3/LRRK2 complex [5] = experiment: Native MS of 14‐3‐3σ/LRRK2 with FC‐A; format: binding; conditions: 14‐3‐3 5 µM, LRRK2 1:2 ratio, FC‐A 50 µM (1:2:10); Figure S14e; proposed explanation of HDX protection
Description: as §4

14‐3‐3/LRRK2 complex [6] = conditions: HDX‐MS, 14‐3‐3σ 100 µM, LRRK2 200 µM, FC‐A 1 mM
Description: To form the 14‐3‐3/LRRK2 complex, 14‐3‐3σ in 25 mM HEPES, 200 mM NaCl, and 10 mM MgCl2 pH 8.0 (100 µM) was incubated with LRRK2 (200 µM) for 10 min on ice. To form the stabilized complex, 14‐3‐3σ (100 µM) was incubated with LRRK2 (200 µM) and FC‐A (1 mM) for 10 min on ice. Control incubations with 14‐3‐3σ (100 µM) in isolation were also performed. A final concentration of 10% DMSO was used for all experiments.
Deuterium labelling was carried out by diluting 14‐3‐3, 14‐3‐3/ERα, 14‐3‐3/ERα/FC‐A, 14‐3‐3/LRRK2 and 14‐3‐3/LRRK2/FC‐A tenfold with 100 mM ammonium acetate 99.9% D2O pD 7.2 and incubating for 10 min, 5 h, and 24 h at room temperature. The reaction was quenched by removal of 50 µL protein complex at each time‐point and adding 30 µL 4 M urea, 200 mM potassium phosphate buffer, pH 2.4, followed by flash freezing in liquid nitrogen and stored at ‐80 °C. […] Each time point was analysed in triplicate by LC‐MS with the exception of the 10‐min timepoint for LRRK2, analysed in duplicate. Non‐deuterated control samples were analysed in triplicate by LC‐MS for ERα complexes and duplicate for LRRK2 complexes.
Maximally deuterated samples were prepared by buffer exchanging 14‐3‐3 into 100 mM ammonium acetate 99.9% D2O pD 7.2 at 20 °C using a 10 kDa molecular weight cut‐off Amicon Ultra centrifugal filter (Merck Millipore). […] Maximally deuterated samples were analyzed in triplicate. […]

[7] = tested on: 14-3-3•ERα protein complex; conditions: ref PDB 4JDD, cited from earlier work
From the text: (§6) Top: Insert of the amphipathic binding groove of 14-3-3 showing binding of FC-A (green) to the 14-3-3•ERα complex (pink) (PDB 4JDD). 14-3-3σ residues involved in binding FC-A and ERα are labelled in grey. […] For illustrati ...

14-3-3•LRRK2 complex = conditions: Fig. S3; protein partner occupies the FC-A binding site; ref PDB 5MY9; cited from earlier work
From the text: as §6

14‐3‐3ζ /E6 oncoprotein = conditions: crystallography; cited from earlier work
14-3-3σ [8] = target: T1, 14-3-3σ (UniProt P31947 1-248); experiment: HDX-MS; 14-3-3σ (100 µM) incubated with ERα peptide (100 µM) or LRRK2 peptide (200 µM), with or without FC-A (1 mM), 10 min on ice, in 25 mM HEPES, 200 mM NaCl, 10 mM MgCl2 pH 8.0, 10% DMSO; diluted tenfold in 100 mM ammonium acetate 99.9% D2O pD 7.2; labelled 10 min, 5 h and 24 h at room temperature; deuterium uptake read on 14-3-3σ peptides (pepsin/nepenthesin-2); conditions: both partners purified
T1 construct: 14-3-3 protein sigma, full length
T1 sequence (looked up): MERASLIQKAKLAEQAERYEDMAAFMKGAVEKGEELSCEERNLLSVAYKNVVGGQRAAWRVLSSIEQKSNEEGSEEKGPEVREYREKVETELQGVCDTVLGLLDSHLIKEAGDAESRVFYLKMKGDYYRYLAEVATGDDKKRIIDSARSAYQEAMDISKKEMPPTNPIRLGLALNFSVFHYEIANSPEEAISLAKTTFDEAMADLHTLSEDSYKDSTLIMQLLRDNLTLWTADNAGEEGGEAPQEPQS

tyrosine hydroxylase: protein partner titrated in a previous FRET study of 14‐3‐3 dimerization
14‐3‐3 dimer stability upon titration (14‐3‐3 [1]): increased dimer stability

Ac‐KYYITGEAEGFPA(pT)V‐COOH (Ac-KYYITGEAEGFPA[pT]V-OH) [ERα, lypholized ERα581‐595 15mer peptide, phosphorylated mimetic of estrogen receptor α]
protection of 14‐3‐3σ from deuterium exchange upon peptide binding (14‐3‐3σ): Protection from deuterium labelling occurs; also recorded: peptides located in helices H3, H7 and H9 showed significant levels of protection after 24 h | protection of 14‐3‐3σ from deuterium exchange at H8 upon peptide binding (14‐3‐3σ; pD 7.2, room temperature): protection was also observed at H8 | dynamics and flexibility of 14‐3‐3 dimer interface (residues 85–100 on H4, 26–36 on H2) upon ERα binding (14‐3‐3σ; pD 7.2, room temperature): a reduction in dynamics and protein flexibility | ERα complexes with 14-3-3 observed by native MS (14-3-3σ [2]): singly and doubly bound ERα is observed in complex | Kd (14‐3‐3/ERα; in the presence of FC‐A): 100 ± 30 nM | Kd (14‐3‐3 [3]): 1600 ± 300 nM

Ac‐NLQRHSN(pS)LGPIFDH‐CONH2 [LRRK2, lypholized LRRK2_928‐942 15mer peptide, phosphorylated mimetic of leucine‐rich repeat kinase 2]
protection of 14‐3‐3σ from deuterium exchange upon peptide binding (14‐3‐3σ): identical areas of protection were observed upon LRRK2 binding; also recorded: the level of protection decreased relative to ERα | protection of 14‐3‐3σ from deuterium exchange at H8 upon peptide binding (14‐3‐3σ; pD 7.2, room temperature): protection was also observed at H8 | binding affinity for 14‐3‐3 relative to ERα (14‐3‐3 [4]): lower binding affinity

C=CC(C)(C)OC[C@H]1O[C@H](O[C@@H]2C3=C([C@H](C)COC(C)=O)C[C@H](O)[C@]3(C)/C=C3/[C@@H](COC)CC[C@H]3[C@@H](C)[C@H]2O)[C@H](O)[C@@H](OC(C)=O)[C@@H]1O [FC‐A, Fusicoccin A]
additional protection from deuterium exchange of 14‐3‐3σ/ERα upon FC‐A addition (14‐3‐3σ/ERα complex; HDX‐MS, 14‐3‐3σ 100 µM, ERα 100 µM, FC‐A 1 mM, diluted tenfold into D2O buffer pD 7.2, room temperature, 10 min, 5 h, 24 h, 10% DMSO, n = 3): additional protection was observed in several peptides; also recorded: increased protection on H3, H7 and H9; also recorded: protection toward the N‐terminus of H3 and H5 between residues 37–45 and 117–122; also recorded: between residues 85–100 on H4 and residues 26–36 on H2; also recorded: additional protection from deuterium labelling | closure of H9 upon FC‐A addition to 14‐3‐3σ/ERα (14‐3‐3σ/ERα complex; HDX‐MS, pD 7.2, room temperature): Evidence of this H9 closure was not observed | peptides with main differences in HDX uptake, 14‐3‐3σ/ERα vs 14‐3‐3σ/ERα/FC‐A (14‐3‐3σ/ERα complex; difference plot over all time points (10 min, 5 h, 24 h)): peptides 23–35, 45-51, 71-73, 92-114 and 120-122 | shift of binding equilibrium upon FC-A addition, native MS (14-3-3σ/ERα): the binding equilibrium is shifted to the fully stabilized ternary complex | interaction between FC‐A and the 14‐3‐3/LRRK2 complex (14‐3‐3/LRRK2 complex [5]): low affinity interaction | additional protection of 14‐3‐3/LRRK2 in regions of the LRRK2 binding interface upon FC‐A addition (14‐3‐3/LRRK2 complex [6]; diluted tenfold into D2O buffer pD 7.2, room temperature, 10% DMSO): No additional protection was observed in regions involved in the LRRK2 binding interface suggesting no stabilization effect | level of protection of residues 37 to 45 (FC‐A binding region) in 14‐3‐3/LRRK2 upon FC‐A addition (14‐3‐3/LRRK2 complex [6]; pD 7.2, room temperature): ~8% | increase of 14‐3‐3/ERα affinity by the molecular glue (14‐3‐3/ERα; FC‐A): > 10 fold | stabilization of 14-3-3•ERα complex by FC-A ([7]; Fig. S3, PDB 4JDD): binds and stabilizes | 14-3-3σ/ERα residues interacting with FC-A ([7]; Fig. S3): N42, D215 and K122 interact with FC-A | stabilization of 14-3-3•LRRK2 complex by FC-A (14-3-3•LRRK2 complex): does not stabilize | conformational change of 14‐3‐3ζ upon addition of FC‐A (14‐3‐3ζ /E6 oncoprotein): closure of H9

B1: ERα_(581-595)pT594 15mer peptide of estrogen receptor α (peptide)
peptide: Ac-KYYITGEAEGFPA[pT]V-OH
notes: estrogen receptor α, residues 581-595, phosphorylated at T594 ('mode 3' C-terminal motif); source: synthetic peptide (Synpeptide Ltd)
binding result (14-3-3σ [8]): binds

B2: LRRK2_(928-942)pS935 15mer peptide of leucine-rich repeat kinase 2 (peptide)
peptide: NLQRHSNSLGPIFDH
HELM: PEPTIDE1{[ac].N.L.Q.R.H.S.N.[O=C([C@H](COP(=O)(O)O)N[*:1])[*:2]].L.G.P.I.F.D.H.[am]}$$$$V2.0
SMILES: CC[C@H](C)[C@H](NC(=O)[C@@H]1CCCN1C(=O)CNC(=O)[C@H](CC(C)C)NC(=O)[C@H](COP(=O)(O)O)NC(=O)[C@H](CC(N)=O)NC(=O)[C@H](CO)NC(=O)[C@H](Cc1c[nH]cn1)NC(=O)[C@H](CCCNC(=N)N)NC(=O)[C@H](CCC(N)=O)NC(=O)[C@H](CC(C)C)NC(=O)[C@H](CC(N)=O)NC(C)=O)C(=O)N[C@@H](Cc1ccccc1)C(=O)N[C@@H](CC(=O)O)C(=O)N[C@@H](Cc1c[nH]cn1)C(N)=O
notes: leucine-rich repeat kinase 2, residues 928-942, phosphorylated at S935; source: synthetic peptide (Synpeptide Ltd)
binding result (14-3-3σ [8]): binds

From publication PMC12591169 (Advanced Science, 2025)
